Assay [1] concerns meniscus derived from osteoarthritis patients. Kind of assay: Microarray gene expression in cultured minced meniscus. Type of assay: cell-based, human. As to conditions: 7 day treatment, Skeletal Development gene. An excerpt:
In this example, meniscus derived from osteoarthritis patients were minced into small pieces and cultured in the absence or presence of magnesium phosphcitrate (MgPC). After 7 day treatment, RNA was extracted and gene expression was investigated using microarray.

Assay [2] deals with Hartley guinea pigs. As to the kind of experiment: High definition X-ray of front limbs of Hartley guinea pigs after eight months of CaPC. Type of assay: in vivo. As to conditions: 30 mg/kg intraperitoneal twice per week. How it is done:
In this example, three month old Hartley guinea pigs were administered 30 mg/kg calcium phosphorcitrate (CaPC) or saline via intraperitoneal injection twice per week. Eight months later, the guinea pigs were sacrificed and examined with high definition X-ray. […] The bone mineral content of the front limb of a CaPC-treated Hartley guinea pig (left photo, the green arrow) was higher than the bone mineral content of a front limb of an untreated Hartley guinea pig (left photo, the green arrow). […] The diameter of the front limb was lager and the bone mineral content was higher in CaPC-treated Hartley guinea pigs that that in untreated Hartley guinea pigs.

Assay [3] concerns Hartley guinea pigs. Kind of assay: Subchondral bone mineral density by X-ray densitometry. The class given is in vivo. How it is done:
The bone mineral density of subchondral bone of these same Hartley guinea pigs was evaluated using a X-ray densitometry.

Assay [4] has as its system Hartley guinea pigs. As to the kind of experiment: Skyscan Micro-CT of distal femurs of Hartley guinea pigs. Type of assay: in vivo. On the procedure: The distal femurs of the Hartley guinea pigs were also analyzed with Skyscan Micro-CT. The femur of untreated Hartley guinea pigs had less bone volume and larger marrow space than the femur of CaPC-treated Hartley guinea pigs. Micro-CT scan of the femur of Hartley guinea pigs. […] The area showing less trabecular bone and larger marrow space is indicated by a red arrow. In the right image of FIG. 3, the femur of a CaPC-treated Hartley guinea pig is shown.
Femurs, previously stored in 70% ethanol, were cut close to the distal femur condyle. The specimens were left to dry 48-hr before being scanned using Skyscan Micro-CT. A 3-D model was built in the ANT model building program and bisected with a plane down the lateral/midline. Using the model building program, a separate dataset was built forming 30 cross sections on either side of the plane. With this dataset, measurements were taken with the 3D-Calc program. A rectangular region of interest was applied to all 60 sections. The region of interest was placed approximately 0.5 cm down from the growth plate in the central part of the trabeculae and extended downward.

Regarding magnesium phosphcitrate [MgPC], in assay [1], the “Differential Expression ACAN” value is recorded as 2.0, the “Differential Expression COL2A1” value was 2.0 and the “Differential Expression COL11A1” value is recorded as 2.7.
For the substance calcium phosphorcitrate [CaPC], the formation of bone entry with Hartley guinea pigs [2] (vs saline) is recorded as “promoted the formation of bone”. Moreover, in the assay on Hartley guinea pigs [2] (vs untreated), the “bone mineral content of the front limb” value is given as “higher” and the “diameter of the front limb” value is recorded as “larger”. Moreover, in assay [1], the “Differential Expression ACAN” value is listed as “significantly induced”, the “Differential Expression COL2A1” value is reported as “significantly induced” and the “Differential Expression COL11A1” value is “significantly induced”. Moreover, in the assay with Hartley guinea pigs [3] (Pair one, untreated 0.143), the “Subchondral bone mineral density” value came to 0.157 g/cm^2. The “Subchondral bone mineral density” value in the assay on Hartley guinea pigs [3] (Pair three, untreated 0.150) was found to be 0.181 g/cm^2. Besides, the “Subchondral bone mineral density” value in the assay on Hartley guinea pigs [3] (Pair two, untreated 0.146) amounted to 0.161 g/cm^2. The “trabecular bone and marrow space of femur (Micro-CT image)” value in the assay on Hartley guinea pigs [4] (30 mg/kg intraperitoneal twice per week, eight months, vs untreated) was “more trabecular bone and less marrow space”. The “Bone Volume” value with Hartley guinea pigs [4] (distal femur, region of interest over 60 sections, untreated 0.19 + 0.04) is 0.49 + 0.09. Also, the “Trabecular Number” value in the assay on Hartley guinea pigs [4] (distal femur, region of interest over 60 sections, untreated 0.43 + 0.08) was 1.07 + 0.15. The “Tissue Volume” value with Hartley guinea pigs [4] (distal femur, region of interest over 60 sections, untreated 10.76 + 1.9) was 10.76 + 1.9. In addition, the “Trabecular Thickness” value in the assay with Hartley guinea pigs [4] (distal femur, region of interest over 60 sections, untreated 32.90 + 3.6) is 42.00 + 4.9.

Source of the values: patent publication US20170232013A1, “COMPOSITIONS AND METHODS FOR THE TREATMENT OF MUSCULOSKELETAL RELATED DISEASES AND DISORDERS USING METAL ION-CITRATE ANALOG COMPLEXES” (The Charlotte-Mecklenburg Hospital Authority d/b/a …, priority 2011, published 2017).
